Target: T1, human GPR119 receptor (Homo sapiens, UniProt Q8TDV5)
T1 construct: host or cells: GeneBLAzer T-Rex GPR 119 CHO-K1 DA cells (CHO-K1)
T1 sequence (Q8TDV5 1-335): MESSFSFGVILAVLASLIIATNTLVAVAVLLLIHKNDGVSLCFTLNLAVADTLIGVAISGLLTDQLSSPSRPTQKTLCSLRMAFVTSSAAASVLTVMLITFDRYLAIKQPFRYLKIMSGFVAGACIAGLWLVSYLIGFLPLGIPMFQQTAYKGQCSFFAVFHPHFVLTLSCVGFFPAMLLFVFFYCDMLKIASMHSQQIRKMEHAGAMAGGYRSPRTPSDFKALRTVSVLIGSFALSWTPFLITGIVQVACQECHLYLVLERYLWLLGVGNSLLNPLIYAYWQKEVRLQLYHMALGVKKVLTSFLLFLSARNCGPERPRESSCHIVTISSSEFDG
Assay: Activity test for human GPR119 receptor (GeneBLAzer T-Rex GPR 119 CHO-K1 DA cells)
Assay type: cell-based
Conditions: for EC50: human GPR119 receptor expressing CHO-K1 cells, 5 hours treatment, read-out: hGPR119 EC50; for activity for human GPR119 receptor (in words): judgement on the EC50 values of Table 11
Description: 1. Human GPR119 Receptor Cell
As a human GPR119 receptor expression cell for this test, the cell line “GeneBLAzer™ T-Rex GPR 119 CHO-K1 DA cells” that is commercially available from Invitrogen, was used. The cell was incubated in the DMEM media containing 1% dialyzed fetal bovine serum etc. The cell incubator was kept at constant temperature and constant humidity of 37° C., 5% CO2.
2. Activity Test for Human GPR119 Receptor
The human GPR119 receptor expressing cell was used to this test. Each of test compounds was added to be final concentrations of 0.1, 1, 10 μM in 96 well and tested in duplicate. A fixed amount of cell was added to each well of 96 well separately, and then treated with the test compound for 5 hours. After treatment of color development agent for 2 hours, the fluorescence value was determined with plate reader. To the luminous wavelength of control well, which was not treated with the sample, but in which only a vehicle […] was contained, the ratio of the luminous wavelength of test well, which was treated with the sample, was calculated, and then converted to obtain EC50 value.
3. Statistical Processing
All the results were expressed as mean±SD, and each test groups and the control group were compared using student's t-test to adjudge the effects of each test groups.

SMILES: NC(=O)[C@@H]1C[C@@H](O)CN1C(=O)c1ccc(-c2ccc(OCC3CCN(CC4(C(F)(F)F)CCC4)CC3)nc2)cc1F [Compound 1317, (2S,4R)-1-(2-fluoro-4-(6-((1-((1-(trifluoromethyl)cyclobutyl)methyl)piperidin-4-yl)methoxy)pyridin-3-yl)benzoyl)-4-hydroxypyrrolidin-2-carboxamide]
- EC50: 60000 pM

SMILES: NC(=O)[C@@H]1C[C@@H](O)CN1C(=O)c1ccc(-c2ccc(OCC3CCN(CC(F)(F)C(F)(F)F)CC3)cc2)cc1F [Compound 1256, (2S,4R)-1-(3-fluoro-4′-((1-(2,2,3,3,3-pentafluoropropyl)piperidin-4-yl)methoxy)biphenylcarbonyl)-4-hydroxypyrrolidin-2-carboxamide]
- EC50: 400 pM

SMILES: NC(=O)C1CC(O)CCN1C(=O)c1ccc(-c2cnc(OCC3CCN(CC4(C(F)(F)F)CCC4)CC3)cn2)cc1F (stereo not shown) [Compound 1262, 1-(2-fluoro-4-(5-((1-((1-(trifluoromethyl)cyclobutyl)methyl)piperidin-4-yl)methoxy)pyrazin-2-yl)benzoyl)-4-hydroxypiperidin-2-carboxamide]
- EC50: 800 pM
- activity for human GPR119 receptor (in words): excellent activity

SMILES: NC(=O)[C@@H]1CCCN1C(=O)c1ccc(-c2ccc(OCC3CCN(CC(F)(F)C(F)(F)F)CC3)cn2)cc1F [Compound 1264, (S)-1-(2-fluoro-4-(5-((1-(2,2,3,3,3-pentafluoropropyl)piperidin-4-yl)methoxy)pyridin-2-yl)benzoyl)pyrrolidin-2-carboxamide]
- EC50: 90 pM
- activity for human GPR119 receptor (in words): excellent activity

SMILES: NC(=O)[C@@H]1C[C@H](F)CN1C(=O)c1ccc(-c2cnc(OCC3CCN(CC4(C(F)(F)F)CCC4)CC3)cn2)cc1 [Compound 1209, (2S,4S)-4-fluoro-1-(4-(5-((1-((1-(trifluoromethyl)cyclobutyl)methyl)piperidin-4-yl)methoxy)pyrazin-2-yl)benzoyl)pyrrolidin-2-carboxamide]
- EC50: 90 pM

SMILES: CCC(F)(CC)CN1CCC(COc2ccc(-c3ccc(C(=O)N4C[C@H](O)C[C@H]4C(N)=O)cc3F)nc2)CC1 [Compound 1287, (2S,4R)-1-(4-(5-((1-(2-ethyl-2-fluorobutyl)piperidin-4-yl)methoxy)pyridin-2-yl)-3-fluorobenzoyl)-4-hydroxypyrrolidin-2-carboxamide]
- EC50: 20000 pM

SMILES: NC(=O)[C@@H]1[C@@H](O)CCN1C(=O)c1ccc(-c2ccc(OCC3CCN(CC4(C(F)(F)F)CCC4)CC3)cc2)c(F)c1 [Compound 1220, (2S,3S)-1-(2-fluoro-4′-((1-((1-(trifluoromethyl)cyclobutyl)methyl)piperidin-4-yl)methoxy)biphenylcarbonyl)-3-hydroxypyrrolidin-2-carboxamide]
- EC50: 100 pM

SMILES: NC(=O)[C@@H]1CCCN1C(=O)c1ccc(-c2ccc(OCC3CCN(CC(F)(F)C(F)(F)F)CC3)cc2)cc1F [Compound 1239, (S)-1-(3-fluoro-4′-((1-(2,2,3,3,3-pentafluoropropyl)piperidin-4-yl)methoxy)biphenylcarbonyl)pyrrolidin-2-carboxamide]
- EC50: 100 pM

SMILES: C[C@@]1(C(N)=O)C[C@@H](O)CN1C(=O)c1ccc(-c2ccc(OCC3CCN(CC4(C(F)(F)F)CCC4)CC3)nc2)cc1F [Compound 1326, (2S,4R)-1-(2-fluoro-4-(6-((1-((1-(trifluoromethyl)cyclobutyl)methyl)piperidin-4-yl)methoxy)pyridin-3-yl)benzoyl)-4-hydroxy-2-methylpyrrolidin-2-carboxamide]
- EC50: 50000 pM

SMILES: CCC(F)(CC)CN1CCC(COc2cnc(-c3ccc(C(=O)N4C[C@H](O)C[C@H]4C(N)=O)c(F)c3)nc2)CC1 [Compound 1257, (2S,4R)-1-(4-(5-((1-(2-ethyl-2-fluorobutyl)piperidin-4-yl)methoxy)pyrimidin-2-yl)-2-fluorobenzoyl)-4-hydroxypyrrolidin-2-carboxamide]
- EC50: 10000 pM

SMILES: CC(C)(CN1CCC(COc2ccc(-c3ccc(C(=O)N4C[C@H](O)C[C@@]4(C)C(N)=O)c(F)c3)cn2)CC1)C(F)(F)F [Compound 1295, (2S,4R)-1-(2-fluoro-4-(6-((1-(3,3,3-trifluoro-2,2-dimethylpropyl)piperidin-4-yl)methoxy)pyridin-3-yl)benzoyl)-4-hydroxy-2-methylpyrrolidin-2-carboxamide]
- EC50: 18000 pM
- activity for human GPR119 receptor (in words): excellent activity

SMILES: NC(=O)[C@@H]1[C@@H](O)CCN1C(=O)c1ccc(-c2cnc(OCC3CCN(CC4(C(F)(F)F)CCC4)CC3)cn2)c(F)c1 [Compound 1253, (2S,3S)-1-(3-fluoro-4-(5-((1-((1-(trifluoromethyl)cyclobutyl)methyl)piperidin-4-yl)methoxy)pyrazin-2-yl)benzoyl)-3-hydroxypyrrolidin-2-carboxamide]
- EC50: 200 pM
- activity for human GPR119 receptor (in words): excellent activity

SMILES: CCC(F)(CC)CN1CCC(COc2ccc(-c3ccc(C(=O)N4CCC[C@@]4(C)C(N)=O)c(F)c3)nc2)CC1 [Compound 1299, (S)-1-(4-(5-((1-(2-ethyl-2-fluorobutyl)piperidin-4-yl)methoxy)pyridin-2-yl)-2-fluorobenzoyl)-2-methylpyrrolidin-2-carboxamide]
- EC50: 9000 pM
- activity for human GPR119 receptor (in words): excellent activity

SMILES: CCC(F)(CC)CN1CCC(COc2ccc(-c3ccc(C(=O)N4C[C@@H](F)C[C@H]4C(N)=O)c(F)c3)cc2)CC1 [Compound 1211, (2S,4S)-1-(4′-((1-(2-ethyl-2-fluorobutyl)piperidin-4-yl)methoxy)-3-fluorobiphenylcarbonyl)-4-fluoropyrrolidin-2-carboxamide]
- EC50: 80 pM

SMILES: NC(=O)[C@@H]1C[C@@H](O)CN1C(=O)c1ccc(-c2ccc(OCC3CCN(CC(F)(F)C(F)(F)F)CC3)cn2)cc1F [Compound 1265, (2S,4R)-1-(2-fluoro-4-(5-((1-(2,2,3,3,3-pentafluoropropyl)piperidin-4-yl)methoxy)pyridin-2-yl)benzoyl)-4-hydroxypyrrolidin-2-carboxamide]
- EC50: 50 pM
- activity for human GPR119 receptor (in words): excellent activity

SMILES: CCC(F)(CC)CN1CCC(COc2ccc(-c3ccc(C(=O)N4C[C@H](O)C[C@@]4(C)C(N)=O)cc3)nc2)CC1 [Compound 1309, (2S,4R)-1-(4-(5-((1-(2-ethyl-2-fluorobutyl)piperidin-4-yl)methoxy)pyridin-2-yl)benzoyl)-4-hydroxy-2-methylpyrrolidin-2-carboxamide]
- EC50: 47000 pM

SMILES: NC(=O)[C@@H]1C[C@@H](O)CN1C(=O)c1ccc(-c2ccc(OCC3CCN(CC4(C(F)(F)F)CCC4)CC3)cn2)cc1F [Compound 1280, (2S,4R)-1-(2-fluoro-4-(5-((1-((1-(trifluoromethyl)cyclobutyl)methyl)piperidin-4-yl)methoxy)pyridin-2-yl)benzoyl)-4-hydroxypyrrolidin-2-carboxamide]
- EC50: 38000 pM
- activity for human GPR119 receptor (in words): excellent activity

SMILES: CCC(F)(CC)CN1CCC(COc2ccc(-c3ccc(C(=O)N4C[C@@H](F)C[C@H]4C(N)=O)cc3F)cc2)CC1 [Compound 1210, (2S,4S)-1-(4′-((1-(2-ethyl-2-fluorobutyl)piperidin-4-yl)methoxy)-2-fluorobiphenylcarbonyl)-4-fluoropyrrolidin-2-carboxamide]
- EC50: 200 pM

SMILES: CC(C)(F)CN1CCC(COc2ccc(-c3ccc(C(=O)N4C[C@H](O)C[C@@]4(C)C(N)=O)c(F)c3)cc2C#N)CC1 [Compound 1276, (2S,4R)-1-(3′-cyano-3-fluoro-4′-((1-(2-fluoro-2-methylpropyl)piperidin-4-yl)methoxy)biphenylcarbonyl)-4-hydroxy-2-methylpyrrolidin-2-carboxamide]
- EC50: 24000 pM

SMILES: C[C@@]1(C(N)=O)CCCN1C(=O)c1ccc(-c2ccc(OCC3CCN(CC4(C(F)(F)F)CCC4)CC3)cn2)cc1F [Compound 1297, (S)-1-(2-fluoro-4-(5-((1-((1-(trifluoromethyl)cyclobutyl)methyl)piperidin-4-yl)methoxy)pyridin-2-yl)benzoyl)-2-methylpyrrolidin-2-carboxamide]
- EC50: 4000 pM
- activity for human GPR119 receptor (in words): excellent activity

SMILES: CCC(F)(CC)CN1CCC(COc2ccc(-c3ccc(C(=O)N4CC[C@H](O)[C@H]4C(N)=O)cc3)c(F)c2)CC1 [Compound 1245, (2S,3S)-1-(4′-((1-(2-ethyl-2-fluorobutyl)piperidin-4-yl)methoxy)-2′-fluorobiphenylcarbonyl)-3-hydroxypyrrolidin-2-carboxamide]
- EC50: 1000 pM

SMILES: CC(C)(CN1CCC(COc2ccc(-c3ccc(C(=O)N4CCC[C@H]4C(N)=O)c(F)c3)nc2)CC1)C(F)(F)F [Compound 1267, (S)-1-(2-fluoro-4-(5-((1-(3,3,3-trifluoro-2,2-dimethylpropyl)piperidin-4-yl)methoxy)pyridin-2-yl)benzoyl)pyrrolidin-2-carboxamide]
- EC50: 90 pM
- activity for human GPR119 receptor (in words): excellent activity

— patent US9776987B2, “Amide derivatives for GPR119 agonist” (CHONG KUN DANG PHARMACEUTICAL CORP., priority 2013, dated 2017)
